Laboratory results: patent US11787800B2, “BRD9 degraders and uses thereof” (Foghorn Therapeutics Inc., priority 2020, dated 2023)

Legend:
Format in all cases: cell-based
[1] = tested on: synovial sarcoma cell lines (SYO1, HS-SY-II, and ASKA); experiment: Crystal violet growth assay, day 14, synovial sarcoma cell lines, Example 4; settings: for growth of synovial sarcoma cell lines: SYO1, HS-SY-II, ASKA, daily treatment, day 14, crystal violet, FIGS. 8 and 9
Protocol: (§1) Procedure: Cells were seeded into 6-well or 12-well plates and were treated daily with a BRD9 degrader (Compound 1), a bromo-domain BRD9 binder (Compound 2), E3 ligase binder (lenalidomide), DMSO, or staurosporin (positive control for cell killing), at indicated concentrations. The number of cells was optimized for each cell line. Growth media was refreshed every 5 days. By day 14, medium was removed, cells were washed with PBS, and stained using 500 μL of 0.005% (w/v) crystal violet solution in 25% (v/v) methanol for at least 1 hour at room temperature. Subsequently plates were scanned on an Odyssey CLx Imaging system.

[2] = tested on: non-synovial control cancer cell lines (RD, HCT116, and Calu6); experiment: Crystal violet growth assay, day 14, non-synovial control cancer cell lines, Example 4; settings: daily treatment, day 14, crystal violet, FIGS. 8 and 9
Protocol: as §1

SYO1 cells [3] = experiment: Cell cycle analysis, Click-iT Plus EdU Flow Cytometry Assay; settings: 200 nM or 1 μM, 8 or 13 days, compared to DMSO and lenalidomide
Protocol: (§2) Compounds were refreshed every 5 days. Cell cycle analysis was performed using the Click-iT™ Plus EdU Flow Cytometry Assay (Invitrogen). The apoptosis assay was performed using the Annexin V-FITC Apoptosis Detection Kit (Sigma A9210). Assays were performed according to the manufacturer's protocol.

[4] = tested on: non-synovial control cancer cell lines (293T, A549, G401); experiment: Growth of non-synovial control cancer cell lines, Example 3; settings: FIGS. 5, 6, 7
Protocol: (§3) Growth medium and compounds were refreshed every 3-4 days.
(§4) The number of cells was optimized for each cell line. Growth medium and compounds were refreshed every 3-5 days. SYO1, Yamato, A549, 293T and HS-SY-II cells were fixed and stained at day 11. ASKA cells were fixed and stained at day 23. Staining was done by incubation with crystal violet solution (0.5 g Crystal Violet, 27 ml 37% Formaldehyde, 100 mL 10×PBS, 10 mL Methanol, 863 dH20 to 1 L) for 30 min followed by 3× washes with water and drying the plates for at least 24 h at room temperature. Subsequently plates were scanned on an Odyssey CLx Imaging system (FIG. 6).
(§5) Cells were seeded into 96-well ultra low cluster plate (Costar, #7007) in 200 μL complete media and treated at day 2 with DMSO, Staurosporin, or BRD9 degarder, Compound 1, at indicated doses (FIG. 7). Media and compounds were changed every 5 d and cell colonies were imaged at day 14.

[5] = tested on: synovial sarcoma cell lines (SYO1, Yamato, HS-SY-II, and ASKA); experiment: Growth of synovial sarcoma cell lines (IncuCyte confluency, crystal violet staining, colony imaging), Example 3; settings: FIGS. 5, 6, 7, 1 μM in crystal violet assay
Protocol: as §3, §4, §5

SYO1 cells [6] = experiment: Apoptosis assay, Annexin V-FITC Apoptosis Detection Kit; settings: 200 nM or 1 μM, 8 days, compared to DMSO controls
Protocol: as §2

| Structure (SMILES) | growth of synovial sarcoma cell lines [1] | growth inhibition compared among the test agents ([1]; all synovial cell lines) | growth of non-synovial control cancer cell lines [2] | numbers of cells in the S-phase of the cell cycle (SYO1 cells [3]) | growth of non-synovial control cancer cell lines [4] | growth of synovial sarcoma cell lines [5] | numbers of early- and late-apoptotic cells (SYO1 cells [6]) |
| --- | --- | --- | --- | --- | --- | --- | --- |
| COc1cc(-c2cn(C)c(=O)c3cnccc23)cc(OC)c1CN(C)CC(=O)NCCOCCOCCNc1cccc2c1C(=O)N(C1CCC(=O)NC1=O)C2=O (centres unmarked) [Compound A] | inhibition of the growth of the cells | most significant growth inhibition | did not result in inhibition of the growth | reduced numbers of cells in the S-phase | does not result in inhibition of the growth | inhibition of the growth of the cells | increased numbers of early- and late-apoptotic cells |
| COc1cc(-c2cn(C)c(=O)c3cnccc23)cc(OC)c1CN(C)C [Compound B] | inhibition of the growth of the cells |  | did not result in inhibition of the growth |  | does not result in inhibition of the growth | inhibition of the growth of the cells |  |
